This assay relates to Huh7 psiCHECK-miR122 Renilla luciferase reporter, 48 h. Kind of assay: miR-122 inhibitors in Huh7 reporter cells, dose response, cell-based, Huh7 psiCHECK-miR122, Renilla luciferase, cherry-pick (AID 652053).
For the compound `COc1ccccc1C(=O)Nc1ccc2c(c1)C(=O)N(C)[C@H]1CC[C@H](CC(=O)NCc3ccc(Cl)c(Cl)c3)O[C@H]1CO2`, the AC40 was 0.333 µM.
`CCCCNS(=O)(=O)c1ccc(NC(=O)c2cccs2)cc1`: the AC40 was 1.09 µM.
As for `Cc1ccc(C(=O)Nc2ccc(C)c(S(=O)(=O)Nc3ccccc3Cl)c2)s1`, the AC40 was 3.03 µM.
For `COc1ccc(NS(=O)(=O)c2ccc3ccccc3c2)c2ncccc12`, the AC40 is 5.19 µM.
In the case of `CN(C)S(=O)(=O)c1ccc(NS(=O)(=O)/C=C/c2ccccc2)cc1`, the AC40 was 2.27 µM.
With `CCCCNS(=O)(=O)c1ccc2nc(-c3cccnc3)cc(C(=O)NC(C)CC)c2c1` (stereo not drawn) the figure was 0.387 µM; with `COc1ccc(C)cc1NS(=O)(=O)c1ccc2c(c1)N(C)CCO2`, 1.54 µM.
As for `Cc1ccc(S(=O)(=O)Nc2ccc3c(c2)CC(=O)N([C@H](C)CO)C[C@H](C)[C@H](CN(C)Cc2ccc(C(=O)Nc4ccccc4N)cc2)O3)cc1`, the AC40 was 6.79 µM.
As for `CCOc1cc(C)c(Cl)cc1S(=O)(=O)NCc1ccco1`, the AC40 is 1.79 µM.
Take `OC(c1ccc(Cl)c(F)c1)c1ncc(-c2cccc(F)c2)[nH]1` (stereo not drawn): the AC40 is 9.13 µM.
As for `Cc1cc(C)c(S(=O)(=O)Nc2ccc(O)cc2)cc1C`, the AC40 was 3.45 µM.
Take `Cc1ccc(C)c(S(=O)(=O)Nc2ccc3scnc3c2)c1`: the AC40 is 0.899 µM.
The same measure for `C[C@@H]1CN([C@H](C)CO)C(=O)c2cccc(NC(=O)C3CCCCC3)c2O[C@@H]1CN(C)Cc1ccc(C(=O)Nc2ccccc2N)cc1`: 6.1 µM; for `CN1C(=O)c2cc(NC(=O)Cc3ccccc3)ccc2OC[C@@H]2O[C@@H](CC(=O)NCC3CC3)CC[C@@H]21`: 0.732 µM; for `Cc1ccc(-c2cc(C(=O)NCCCn3ccnc3)c3ccccc3n2)s1`: 11.1 µM.
On to `COc1cccc(NS(=O)(=O)c2ccc3c(c2)N(C(C)=O)CCO3)c1`, for which the AC40 was 3.67 µM.
Regarding `COC(=O)c1c(C)oc(C)c1S(=O)(=O)NCC1CC1`, the AC40 was 3.29 µM.
With `S=C(NCCc1ccccc1)Nc1ccc(Cl)cc1Cl`, the AC40 was 5.71 µM.
As to `Fc1cccc(NC(=S)NC2CCCCCCC2)c1`, the AC40 is 4.22 µM.
Turning to `Cc1ccc(C(=O)NCc2ccco2)cc1S(=O)(=O)Nc1cccc(C)c1C`, the AC40 is 6.29 µM.
For the compound `COc1ccc(NC(=O)c2cc(C)nc3ccccc23)cc1S(=O)(=O)Nc1ccccc1Cl`, the AC40 was 2.33 µM.
Consider `O=C1C(Oc2ccccc2)C(c2ccc3c(c2)OCO3)N1CCc1ccc(F)cc1` (stereo not drawn), for which the AC40 was 8.01 µM.
As to `C[C@@H]1CN([C@H](C)CO)C(=O)c2cc(NC(=O)Cc3ccccc3)ccc2O[C@@H]1CN(C)S(=O)(=O)c1ccc(Cl)cc1`, the AC40 was 1.31 µM.
On to `COc1cc(S(=O)(=O)NC2CCCCC2)c(C)cc1C`, for which the AC40 was 0.686 µM.
Consider `O=S(=O)(NCC1CCCO1)c1cc(Br)c(Br)s1` (stereo not drawn), for which the AC40 is 4 µM.
With `COc1ccc(NS(=O)(=O)c2cc(NC(=O)c3cccc(OCc4c(C)noc4C)c3)ccc2OC)cc1` the figure was 2.57 µM; with `COCC#Cc1ccc2c(c1)O[C@H](CN(C)Cc1ccc3c(c1)OCO3)[C@@H](C)CN([C@@H](C)CO)S2(=O)=O`, 13.8 µM.
As for `COc1cccc(NS(=O)(=O)c2c(C)cc(C)cc2C)c1`, the AC40 was 3.37 µM.
For the compound `C[C@@H]1CN([C@H](C)CO)C(=O)c2cccc(NC(=O)C3CC3)c2O[C@H]1CN(C)Cc1ccc(C(F)(F)F)cc1`, the AC40 is 4.08 µM.
With `C[C@H](CO)N1C[C@H](C)[C@H](CN(C)Cc2ccc(C(=O)Nc3ccccc3N)cc2)Oc2ccc(NC(=O)Nc3ccc4c(c3)OCO4)cc2CC1=O` the figure was 8.06 µM; with `O=C(CCc1ccc(S(=O)(=O)NCCc2ccccc2)cc1)NCc1ccc2c(c1)OCO2`, 8.53 µM; with `Cc1ccc(S(=O)(=O)Nc2ccc3ncccc3c2)cc1`, 11.6 µM.
Regarding `C[C@@H]1CN([C@@H](C)CO)C(=O)c2cccc(NC(=O)c3ccncc3)c2O[C@@H]1CN(C)C`, the AC40 is 12 µM.
With `COc1ccc(OC)c(S(=O)(=O)Nc2cccc(-c3ccc4nncn4n3)c2)c1`, the AC40 is 2.4 µM.
For `COc1ccc(CN(C)C[C@H]2Oc3c(NC(=O)NC4CCCCC4)cccc3C(=O)N([C@H](C)CO)C[C@@H]2C)cc1`, the AC40 is 5.06 µM.
Take `Cc1c(C)c(C)c(S(=O)(=O)NCCc2ccccn2)c(C)c1C`: the AC40 is 1.69 µM.
For `Cc1ccccc1OCC(=O)NNC(=O)Nc1ccc(Cl)cc1`, the AC40 was 17.4 µM.
In the case of `CC(C)C(=O)NC(=S)Nc1ccc(S(=O)(=O)Nc2ccccc2)cc1`, the AC40 was 0.461 µM.
For `Cc1ccc(S(=O)(=O)N2CCC3(CC2)OCCN3S(=O)(=O)c2cccs2)cc1`, the AC40 is 3.63 µM.
As for `CC(NC(=S)Nc1ccc(Cl)cc1Cl)C(c1cccs1)N1CCCC1` (stereo not drawn), the AC40 is 23.8 µM.
Turning to `O=S(=O)(NCC1CCCO1)c1cccc(C(F)(F)F)c1` (stereo not drawn), the AC40 was 22.2 µM.
The same measure for `C[C@@H]1CN([C@@H](C)CO)C(=O)c2cccc(NC(=O)c3ccc(-c4nccs4)cc3)c2O[C@@H]1CN(C)Cc1ccc(C(=O)Nc2ccccc2N)cc1`: 4.9 µM; for `Cn1cc(CC(=O)Nc2cccc(C#N)c2)c2ccccc21`: 3.57 µM.
Turning to `CCCCNS(=O)(=O)c1ccc2nc(SCC(N)=O)[nH]c2c1`, the AC40 was 6.07 µM.
Turning to `S=C(NCC1CCCCC1)Nc1ccc(Oc2ccccc2)cc1`, the AC40 is 14.6 µM.
Take `C[C@@H]1CN([C@@H](C)CO)C(=O)c2cccc(NC(=O)C3CCCCC3)c2O[C@@H]1CN(C)Cc1ccc(C(=O)Nc2ccccc2N)cc1`: the AC40 was 6.92 µM.
Consider `COc1cc(C)c(C(C)C)cc1S(=O)(=O)n1cnc(C)c1`, for which the AC40 is 2.65 µM.
As for `COc1ccccc1NS(=O)(=O)c1cc(NC(=O)CCC(=O)c2cccs2)ccc1Cl`, the AC40 was 21.7 µM.
Turning to `CN1c2ccc(-c3cccc(F)c3)cc2[C@H]2[C@H](CCN2C(=O)c2ccccc2F)[C@H]1CO`, the AC40 was 0.528 µM.
Consider `C[C@H]1CN([C@@H](C)CO)C(=O)c2cccc(NC(=O)c3ccncc3)c2O[C@@H]1CN(C)CC1CCCCC1`, for which the AC40 is 7.44 µM.
`O=S(=O)(NCc1cccnc1)c1ccc(Cl)c2ccccc12`: the AC40 was 4.69 µM.
As for `O=C(COc1ccc(S(=O)(=O)NC2CCCCC2)cc1)NC1CCCC1`, the AC40 was 8.46 µM.
As to `Clc1ccc2[nH]cc(-c3nnnn3-c3ccc4ccccc4c3)c2c1`, the AC40 is 6.75 µM.
On to `Cc1ccc(NC(=S)NCc2ccc(F)cc2)cc1`, for which the AC40 was 20.3 µM.
Consider `CN1C(=O)c2cc(NC(=O)NCc3ccccc3)ccc2OC[C@@H]2O[C@H](CC(=O)NCC3CCCCC3)CC[C@@H]21`, for which the AC40 is 0.358 µM.
For `C=CCNc1cc(F)ccc1S(=O)(=O)NCC=C`, the AC40 is 1.03 µM.
Take `FC(F)(F)c1cccc(NC(=S)NCCc2ccccn2)c1`: the AC40 is 2.88 µM.
For the compound `S=C(NCc1ccncc1)Nc1cc(Cl)cc(Cl)c1`, the AC40 is 5.2 µM.
Take `COc1ccc(C2=Nn3c(nnc3-c3ccccc3OC)SC2)cc1OC1CCOC1` (stereo not drawn): the AC40 was 8.29 µM.
As for `Cc1ccc(-c2cnc(C3CC3)o2)cc1S(=O)(=O)Nc1ccccc1`, the AC40 is 3.08 µM.
For `COc1ccc(Cl)cc1NS(=O)(=O)c1cc(Cl)ccc1OC`, the AC40 was 4.45 µM.
With `COc1ccc(NS(=O)(=O)c2cc(C)ccc2NC(=O)c2cc(C)oc2C)cc1` the figure was 3.23 µM.
With `COc1ccccc1CNC(=O)C[C@H]1CC[C@H]2[C@H](COc3ccc(NS(=O)(=O)c4ccc(C)cc4)cc3C(=O)N2C)O1` the figure was 22.4 µM.

The values above are taken from PubChem BioAssay AID652053 (Broad Institute, 2013).
